Source: article PMC11352099 (RSC Medicinal Chemistry, 2024)
Like-named read-outs stand apart in the source and are kept apart here.

Experiments:
SARS-CoV-2 nsp14 MTase = SARS-CoV-2 nsp14 MTase (Severe acute respiratory syndrome coronavirus 2, UniProt P0DTD1); assay: biochemical; type: biochemical; settings: for Hill slope: Table S1, dose-response curve, variable slope model
[1] = microsomes, 0.75 h, 10 µM, pH 7.4
[2] = 120 min, 10 μM
[3] = microsomes, 0.75 h, 10 µM, pH 7.4; remark: listed apart in the source
[4] = 120 min, 10 μM; remark: listed apart in the source
[5] = system: SARS-CoV-2 strain hCoV-19/Czech Republic/NRL_6632_2/2020; assay: microbe, parasite or virus in culture; type: cell-based; settings: Calu-3 cell line, read-out: EC50 (antiviral effect)
human RNMT = human RNMT (Homo sapiens, UniProt O43148); assay: Off-target inhibition of human RNMT; type: biochemical; settings: for inhibitory activity against RNMT: 25 μM concentration of inhibitor
Source text: Human cells rely on several MTases; therefore, it is necessary to assess the possible off-target effect. […]

in vitro [6] = settings: human; for efflux ratio at 2 h, 10 µM: Caco-2; for Papp A→B at 2 h, 10 µM / Papp B→A at 2 h, 10 µM: Caco-2, pH 7.4
Protocol: (§1) 3.5. Caco-2 permeability assay
(§2) Transepithelial bi-directional transport of compounds (10 µM, pH 7.4/7.4) was tested on 21-day differentiated Caco-2 monolayers. Briefly, the cells were seeded at a density of 67 ,500 cells per 96-well plate insert (Millicell®, Merck KGaA, Darmstadt, Germany). They were left to differentiate for 21 days with medium exchange every 2–3 days. Prior to the experiment, the medium from both apical and basolateral well was exchanged for HBSS buffer (containing 10 mM HEPES and 25 mM glucose) and left to equilibrate for 30 min. Compound permeability was assayed by replacing pure HBSS with HBSS containing 10 μM compounds and 220 μM Lucifer yellow (LY) solution in an apical insert (A to B transport) or in a basolateral well (B to A transport). The tre ated cells were then returned to the incubator for 2 h at 37 °C. After that, samples were collected from both apical inserts and basolateral wells and analyzed using LC -MS/MS (SCIEX Triple Quad™ 7500 QTRAP® Ready). LC separation was done on Synergi 4µm Fusion 50 × 2 mm column (Phenomenex) using a water/acetonitrile gradient with 0.1% formic acid starting from 2 to 98% for 4.5 min.
(§3) The apparent permeability coefficient (Papp) was calculated from t he following equation: Papp = (dQ / dt) / C0 * A, where dQ/dt is the rate of absorption of the drug across the cells, C0 is the donor compartment concentration at time zero, and A is the area of the monolayer. Efflux ratio was expressed as (Papp B -A) / (Papp A-B). Recovery (%) was determined as (total compound mass i n donor and receiver compartments at the end of the incubation / initial compound mass in the donor compartment) x 100. The data represent means ± SD of two independent experiments performed in triplicate. […]
(§4) were used as control compounds.

Caco-2 monolayers = assay: in vitro; settings: Caco-2
Protocol: as §1, §2, §3, §4

in vitro [7] = settings: human
[8] = Table 1 and text, N.I., no inhibition, read-out: IC50
[9] = Table 1 and text, N.I., no inhibition
[10] = Severe acute respiratory syndrome coronavirus 2
[11] = Table S1, read-out: IC50 (inhibitory activity)

Sequence of human RNMT (O43148 whole entry): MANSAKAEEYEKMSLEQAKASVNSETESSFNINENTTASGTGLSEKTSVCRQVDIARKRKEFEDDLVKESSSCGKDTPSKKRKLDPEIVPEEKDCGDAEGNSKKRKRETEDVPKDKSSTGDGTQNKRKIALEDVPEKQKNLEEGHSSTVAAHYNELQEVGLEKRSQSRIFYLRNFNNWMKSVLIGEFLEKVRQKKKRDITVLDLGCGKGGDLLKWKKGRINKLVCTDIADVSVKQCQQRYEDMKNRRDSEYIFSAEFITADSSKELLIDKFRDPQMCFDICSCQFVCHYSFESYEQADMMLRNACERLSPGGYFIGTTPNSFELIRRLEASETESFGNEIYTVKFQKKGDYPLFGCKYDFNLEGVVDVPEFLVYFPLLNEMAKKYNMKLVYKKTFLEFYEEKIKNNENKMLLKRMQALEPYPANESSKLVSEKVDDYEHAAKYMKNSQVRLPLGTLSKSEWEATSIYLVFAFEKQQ

**Q.** With Cc1cc(=O)oc2cc(S(=O)(=O)C[C@H]3O[C@@H](n4cnc5c(N)ncnc54)[C@H](O)[C@@H]3O)ccc12 [compound 25] as the molecule, how does the “inhibitory activity against nsp14 (in words)” value (SARS-CoV-2 nsp14 MTase) read?
**A.** Its value is “significant decrease or complete loss of the inhibitory activity”.

**Q.** What about the IC50 (SARS-CoV-2 nsp14 MTase; [8]) of the same molecule?
**A.** The IC50 was greater than 25 µM.

**Q.** Which IC50 (SARS-CoV-2 nsp14 MTase; [9]) does the source give for COc1cccc(NC(=O)[C@H]2O[C@@H](n3cnc4c(N)ncnc43)[C@H](O)[C@@H]2O)c1 [12c] here?
**A.** The IC50 was “N.I”.

**Q.** Which “inhibitory activity against nsp14 (in words)” value (SARS-CoV-2 nsp14 MTase) does the source give for COC(=O)c1ccc(C(=O)NC[C@H]2O[C@@H](n3cnc4c(N)ncnc43)[C@H](O)[C@@H]2O)cc1 [21a] here?
**A.** Its value is “significant decrease or complete loss of the inhibitory activity”.

**Q.** What about the IC50 (SARS-CoV-2 nsp14 MTase; [9]) of the same molecule?
**A.** Its IC50 is “N.I”.

**Q.** Which “Microsomal stability % of the parent compound after 45 min, Mouse” value [1] does the source give for Cc1cc(=O)[nH]c2cc(N(C)C(=O)[C@H]3O[C@@H](n4cc(C#Cc5cncnc5)c5c(N)ncnc54)[C@H](O)[C@@H]3O)ccc12 [18q] here?
**A.** Its value is 117 ± 10.9%.

**Q.** And the “Plasma stability % of the parent compound after 120 min, Mouse” value [2]?
**A.** Its value is 86 ± 0.9%.

**Q.** And the “Microsomal stability % of the parent compound after 45 min, Human” value [3]?
**A.** Its value is 107 ± 6.6%.

**Q.** And the “Plasma stability % of the parent compound after 120 min, Human” value [4]?
**A.** The value was 80 ± 1.1%.

**Q.** What about the EC50 [5, 10] of the same molecule?
**A.** The EC50 was greater than 50 µM.

**Q.** And the “inhibitory activity against RNMT” value (human RNMT)?
**A.** The value was “None of the tested compounds exhibited any inhibitory activity”.

**Q.** What about the IC50 (SARS-CoV-2 nsp14 MTase; [8]) of the same molecule?
**A.** Its IC50 is 0.89 ± 0.12 µM.

**Q.** And the Hill slope (SARS-CoV-2 nsp14 MTase)?
**A.** The Hill slope was -1.02.

**Q.** What about the IC50 (SARS-CoV-2 nsp14 MTase; [11]) of the same molecule?
**A.** Its IC50 is 0.891 µM.

**Q.** What about the efflux ratio at 2 h, 10 µM (in vitro [6]) of the same molecule?
**A.** Its efflux ratio at 2 h, 10 µM is 1.

**Q.** What about the recovery at 2 h, 10 µM (in vitro [6]; Caco-2, Recovery (%) A-B) of the same molecule?
**A.** The recovery at 2 h, 10 µM was 89%.

**Q.** And the recovery at 2 h, 10 µM (in vitro [6]; Caco-2, Recovery (%) B-A)?
**A.** The recovery at 2 h, 10 µM was 101%.

**Q.** What about the Papp A→B at 2 h, 10 µM (in vitro [6]) of the same molecule?
**A.** Its Papp A→B at 2 h, 10 µM is 2 ± 0.3 ×10⁻⁶ cm/s.

**Q.** What about the Papp B→A at 2 h, 10 µM (in vitro [6]) of the same molecule?
**A.** The Papp B→A at 2 h, 10 µM was 2.1 ± 0.4 ×10⁻⁶ cm/s.

**Q.** What about the “Papp A-B” value (Caco-2 monolayers) of the same molecule?
**A.** The value was 2.0 ± 0.3 cm/s x 10-6.

**Q.** What about the “Papp B-A” value (Caco-2 monolayers) of the same molecule?
**A.** Its value is 2.1 ± 0.4 cm/s x 10-6.

**Q.** For Cc1cc(=O)oc2cc(NC(=O)[C@H]3O[C@@H](n4cc(C#Cc5cncnc5)c5c(N)ncnc54)[C@H](O)[C@@H]3O)ccc12 [18l], which “Microsomal stability % of the parent compound after 45 min, Mouse” value [1] is on record?
**A.** Its value is 84 ± 2.5%.

**Q.** What about the CC50 at 3 days (in vitro [7]) of the same molecule?
**A.** The CC50 at 3 days was greater than 50 µM.

**Q.** And the “Plasma stability % of the parent compound after 120 min, Mouse” value [2]?
**A.** The value was 89 ± 1.1%.

**Q.** And the “Microsomal stability % of the parent compound after 45 min, Human” value [3]?
**A.** The value was 90 ± 4.2%.

**Q.** And the “Plasma stability % of the parent compound after 120 min, Human” value [4]?
**A.** Its value is 74 ± 0.2%.

**Q.** And the EC50 ([5]; Severe acute respiratory syndrome coronavirus 2, 72 h, MOI ∼0.01, 3 days)?
**A.** Its EC50 is 12 ± 6 µM.

**Q.** What about the IC50 (human RNMT) of the same molecule?
**A.** The IC50 was greater than 25 µM.

**Q.** What about the “inhibitory activity against RNMT” value (human RNMT) of the same molecule?
**A.** The value was “None of the tested compounds exhibited any inhibitory activity”.

**Q.** What about the IC50 (SARS-CoV-2 nsp14 MTase; [8]) of the same molecule?
**A.** Its IC50 is 0.031 ± 0.005 µM.

**Q.** And the Hill slope (SARS-CoV-2 nsp14 MTase)?
**A.** The Hill slope was -1.09.

**Q.** What about the recovery at 2 h, 10 µM (in vitro [6]; Caco-2, Recovery (%) A-B) of the same molecule?
**A.** The recovery at 2 h, 10 µM was 87%.

**Q.** And the Papp B→A at 2 h, 10 µM (in vitro [6])?
**A.** The Papp B→A at 2 h, 10 µM was 8.3 ± 0.5 ×10⁻⁶ cm/s.

**Q.** And the “Papp B-A” value (Caco-2 monolayers)?
**A.** The value was 8.3 ± 0.5 cm/s x 10-6.

**Q.** Which “inhibitory activity against nsp14 (in words)” value (SARS-CoV-2 nsp14 MTase) does the source give for Cc1cc(=O)oc2cc(SC[C@H]3O[C@@H](n4cnc5c(N)ncnc54)[C@H](O)[C@@H]3O)ccc12 [compound 24] here?
**A.** Its value is “significant decrease or complete loss of the inhibitory activity”.

**Q.** And the IC50 (SARS-CoV-2 nsp14 MTase; [8])?
**A.** The IC50 was 3.67 ± 0.4 µM.

**Q.** And the Hill slope (SARS-CoV-2 nsp14 MTase)?
**A.** Its Hill slope is -1.04.

**Q.** And the IC50 (SARS-CoV-2 nsp14 MTase; [11])?
**A.** Its IC50 is 3.67 µM.

**Q.** What does the source list for Cc1cc(=O)[nH]c2cc(NC(=O)[C@H]3O[C@@H](n4cnc5c(N)ncnc54)[C@H](O)[C@@H]3O)ccc12 [12n]?
**A.** Microsomal stability % of the parent compound after 45 min, Mouse [1]: 90 ± 2.9%; Plasma stability % of the parent compound after 120 min, Mouse [2]: 78 ± 0.3%; Microsomal stability % of the parent compound after 45 min, Human [3]: 95 ± 0.0%; Plasma stability % of the parent compound after 120 min, Human [4]: 97 ± 2.0%; EC50 [5, 10]: > 50 µM; inhibitory activity against RNMT (human RNMT): None of the tested compounds exhibited any inhibitory activity; IC50 (SARS-CoV-2 nsp14 MTase; [8]): 0.35 ± 0.04 µM; Hill slope (SARS-CoV-2 nsp14 MTase): -1.19; efflux ratio at 2 h, 10 µM (in vitro [6]): 0.5; recovery at 2 h, 10 µM (in vitro [6]; Caco-2, Recovery (%) A-B): 79%; recovery at 2 h, 10 µM (in vitro [6]; Caco-2, Recovery (%) B-A): 87%; Papp A→B at 2 h, 10 µM (in vitro [6]): 4.4 ± 1.8 ×10⁻⁶ cm/s; Papp B→A at 2 h, 10 µM (in vitro [6]): 2.2 ± 0.4 ×10⁻⁶ cm/s; Papp A-B (Caco-2 monolayers): 4.4 ± 1.8 cm/s x 10-6; Papp B-A (Caco-2 monolayers): 2.2 ± 0.4 cm/s x 10-6

**Q.** For COC(=O)c1ccc(NC(=O)[C@H]2O[C@@H](n3cnc4c(N)ncnc43)[C@H](O)[C@@H]2O)cc1 [12a], which IC50 (SARS-CoV-2 nsp14 MTase; [8]) is on record?
**A.** Its IC50 is greater than 25 µM.

**Q.** Which IC50 (SARS-CoV-2 nsp14 MTase; [9]) does the source give for Nc1ncnc2c1ncn2[C@@H]1O[C@H](C(=O)Nc2ccc(-c3cn[nH]c3)cc2)[C@@H](O)[C@H]1O [12i] here?
**A.** The IC50 was “N.I”.

**Q.** Which IC50 (SARS-CoV-2 nsp14 MTase; [9]) does the source give for Nc1ncnc2c1ncn2[C@@H]1O[C@H](C(=O)Nc2ccc(-c3ccoc3)cc2)[C@@H](O)[C@H]1O [12g, (2S,3S,4R,5R)-5-(6-Amino-9H-purin-9-yl)-N-(4-(furan-3-yl)phenyl)-3,4-dihydroxytetrahydrofuran-2-carboxamide] here?
**A.** The IC50 was “N.I”.

**Q.** Which IC50 (SARS-CoV-2 nsp14 MTase; [8]) does the source give for COc1ccc(NC(=O)[C@H]2O[C@@H](n3cnc4c(N)ncnc43)[C@H](O)[C@@H]2O)cc1O [12d] here?
**A.** Its IC50 is greater than 25 µM.

**Q.** For Cc1ccc(NC(=O)[C@H]2O[C@@H](n3cnc4c(N)ncnc43)[C@H](O)[C@@H]2O)cc1O [12e], which IC50 (SARS-CoV-2 nsp14 MTase; [9]) is on record?
**A.** Its IC50 is “N.I”.
